One block for each molecule: values may come before it.
Key:
Goat anti-mouse IgG = test: High-throughput protein formulation optimization: effect of excipients on IgG aggregation at 50° C., S-25/Tol3 readout; format: biochemical; details: 50° C. for 6 hours
Description: (A). Goat anti-mouse IgG was diluted in sodium acetate, pH 4.5, then mixed with the excipients shown in FIG. 10 A giving a final concentration of 400 mM sodium acetate, 18 μM IgG and the excipient concentration shown in the Table 2. This mixture was heated to 50° C. for 6 hours. At this time the protein solution was diluted two-fold to give a final concentration of 50 mM Histidine buffer, originally pH 7, 2.5 μM S-25, 2.5 μM Tol3 and 9 μM IgG. After 30 minutes of incubation on the shaker, the fluorescence intensity was recorded on the plate reader (FLUOstar Optima). The fluorescence intensity from each individual excipient was then compared with that without any excipient (Value set as 1.0) as shown on the top of the corresponding excipient bar in FIG. 12 A.
(B). In the control plate, the IgG was added to the plate, at the same volume and concentration given above (Example 17A) in 400 mM Sodium Acetate. This mixture was heated to 50° C. for 6 hours, as described above. After 6 hours, the excipient was added followed by S-25 and Tol3 to give all the final concentrations as shown in Example 17A. Similar to the sample plate, the fluorescence intensity from individual excipients was also compared with that from water without any excipient (Values set as 1.0) to obtain the relative fluorescent intensity as shown on the top of the corresponding excipient bar in FIG. 12B.
(C). […]

[1] = molecular target: T1, recombinant human alpha-synuclein (ASN) aggregate (Homo sapiens, UniProt P37840); test: Fluorescence excitation and emission spectra of dye in the presence of aggregated alpha-synuclein; format: binding; details: for In the presence of aggregate: Emission wavelength / In the presence of aggregate: Excitation wavelength: 1 μM aggregated ASN, 50 mM Tris-HCl, pH 7.8, 10 μM dye
T1 construct: purchased Sigma-Aldrich
Description: (§1) Fluorescent readings were carried out in 50 mM Tris-HCl, pH 7.8 using 10 μM dye. […] Fluorescence excitation and emission spectra were collected on a Cary Eclipse fluorescence spectrophotometer (Varian, Australia). Fluorescence spectra were measured with excitation and emission slit widths set to 5 nm, and at a constant PMT voltage. Spectroscopic measurements were performed in standard quartz cells. All measurements were made at the respective excitation maxima of each dye. All measurements were carried out at room temperature.

[2] = system: goat-anti-mouse IgG aggregate; test: Fluorescence enhancement (aggregate/native IgG) in the presence of excipients; format: binding; details: for Fluorescence enhancement (aggregate/native IgG): 2.8 μM IgG, 0.625 μM dye; for Fluorescence enhancement (aggregate/native IgG), Average: Average over all excipient conditions
Description: IgG aggregate was prepared by adjusting 5.83 mg/ml of purified goat-anti-mouse IgG (H&L, Pel Freez, Rogers, Ark.) to pH 2.7 using HCl and incubating at 22° C. for 24 hours. The assay was performed using 2.8 μM IgG, either native or aggregated, and a dye concentration of 0.625 μM. The protein and dye were mixed together for 15 minutes at 22° C., then this was further incubated in the presence of the excipients shown in the table. The fluorescence intensity of S-25, Tol3 and Y2150 were determined with a FLUOstar OPTIMA plate reader (BMG LABTECH) at excitation wavelength of 550 nm and emission wavelength of 610 nm; while the fluorescence intensity for Thioflavin-T was determined using a SpectraMAX GeminiXS (Molecular device, with Softmax Pro 7.0) using an excitation wavelength of 435 nm and emission wavelength of 495 nm. The fluorescence enhancement (aggregate/native IgG) is shown.

[3] = Fluorescence excitation and emission spectra of dye freely dissolved in buffer; format: physicochemical; details: 50 mM Tris-HCl, pH 7.8, 10 μM dye, room temperature
Description: as §1

Molecule: OC[C@H]1O[C@H](O[C@H]2O[C@H](CO)[C@@H](O)[C@H](O)[C@H]2O)[C@H](O)[C@@H](O)[C@@H]1O [Trehalose]
Effect on aggregation of IgG (fluorescence ratio sample plate / control plate) (Goat anti-mouse IgG; 100 mM Trehalose): inhibit or slow down aggregation of IgG

Molecule: CCN(CC)c1ccc(/C=C/c2cc[n+](Cc3ccccc3C[n+]3ccc(/C=C/c4ccc(N(CC)CC)cc4)cc3)cc2)cc1.[Br-].[Br-] [Yat 2148]
In the presence of aggregate: Emission wavelength [1]: 625 nm | In the presence of aggregate: Excitation wavelength [1]: 553 nm

Molecule: CCN(CC)c1ccc(/C=C/c2cc[n+](CCCCCCCCCC[n+]3ccc(/C=C/c4ccc(N(CC)CC)cc4)c(C)c3)cc2C)cc1 [Yat 2150]
Fluorescence enhancement (aggregate/native IgG) ([2]; Ammonium Sulfate, 10 mM): 12.4 fold | Fluorescence enhancement (aggregate/native IgG) ([2]; Ammonium Sulfate, 100 mM): 12.5 fold | Fluorescence enhancement (aggregate/native IgG) ([2]; Ammonium Sulfate, 300 mM): 14.6 fold | Fluorescence enhancement (aggregate/native IgG) ([2]; Arginine, 200 mM): 14.4 fold | Fluorescence enhancement (aggregate/native IgG) ([2]; Arginine, 500 mM): 14.3 fold | Fluorescence enhancement (aggregate/native IgG) ([2]; Ascoric Acid, 1 mM): 14.5 fold | Fluorescence enhancement (aggregate/native IgG), Average [2]: 14.8 fold | Fluorescence enhancement (aggregate/native IgG) ([2]; Calcium Chloride, 10 mM): 12.4 fold | Fluorescence enhancement (aggregate/native IgG) ([2]; Calcium Chloride, 50 mM): 14.7 fold | Fluorescence enhancement (aggregate/native IgG) ([2]; Calcium Chloride, 200 mM): 13.9 fold | Fluorescence enhancement (aggregate/native IgG) ([2]; DTT, 1 mM): 11.3 fold | Fluorescence enhancement (aggregate/native IgG) ([2]; Glycine, 0.5%): 12.5 fold | Fluorescence enhancement (aggregate/native IgG) ([2]; Glycine, 2%): 19.0 fold | Fluorescence enhancement (aggregate/native IgG) ([2]; Lactose, 100 mM): 17.5 fold | Fluorescence enhancement (aggregate/native IgG) ([2]; Lactose, 300 mM): 31.0 fold | Fluorescence enhancement (aggregate/native IgG) ([2]; Mannitol, 100 mM): 11.2 fold | Fluorescence enhancement (aggregate/native IgG) ([2]; Mannitol, 300 mM): 13.8 fold | Fluorescence enhancement (aggregate/native IgG) ([2]; Mannitol, 600 mM): 17.7 fold | Fluorescence enhancement (aggregate/native IgG) ([2]; Sodium Chloride, 10 mM): 14.4 fold | Fluorescence enhancement (aggregate/native IgG) ([2]; Sodium Chloride, 100 mM): 11.3 fold | Fluorescence enhancement (aggregate/native IgG) ([2]; Sodium Chloride, 1000 mM): 15.0 fold | Fluorescence enhancement (aggregate/native IgG) ([2]; Sorbitol, 100 mM): 17.3 fold | Fluorescence enhancement (aggregate/native IgG) ([2]; Sorbitol, 300 mM): 15.6 fold | Fluorescence enhancement (aggregate/native IgG) ([2]; Sorbitol, 600 mM): 18.7 fold | Fluorescence enhancement (aggregate/native IgG) ([2]; Trehalose, 100 mM): 14.0 fold | Fluorescence enhancement (aggregate/native IgG) ([2]; Trehalose, 300 mM): 19.4 fold | Fluorescence enhancement (aggregate/native IgG) ([2]; Trehalose, 600 mM): 18.9 fold | Fluorescence enhancement (aggregate/native IgG) ([2]; Tween 20, 0.01%): 5.5 fold | Fluorescence enhancement (aggregate/native IgG) ([2]; Tween 20, 0.2%): 2.6 fold | Fluorescence enhancement (aggregate/native IgG) ([2]; X100, 0.01%): 4.1 fold | Fluorescence enhancement (aggregate/native IgG) ([2]; X100, 0.2%): 2.6 fold | Fluorescence enhancement (aggregate/native IgG) ([2]; X100, 1%): 1.7 fold | In the presence of aggregate: Emission wavelength [1]: 610 nm | In the presence of aggregate: Excitation wavelength [1]: 515 nm | Dye freely dissolved in buffer: Emission wavelength [3]: 612 nm | Dye freely dissolved in buffer: Excitation wavelength [3]: 485 nm

Molecule: Triton X-100
Effect on aggregation of IgG (fluorescence ratio sample plate / control plate) (Goat anti-mouse IgG; 0.2% Triton X-100): induce aggregation of IgG

Second part, led by results:

In the presence of aggregate: Emission wavelength [1]: 480 nm | In the presence of aggregate: Excitation wavelength [1]: 447 nm | Stokes shift ([1]; as seen in Table 1): 23 nm | Dye freely dissolved in buffer: Emission wavelength [3]: 472 nm | Dye freely dissolved in buffer: Excitation wavelength [3]: 400 nm
Molecule: Cc1ccc2c(c1)sc(-c1ccc(N(C)C)cc1)[n+]2C.[Cl-] [Thioflavin-T, Thioflavin T, reference compound]
Fluorescence enhancement (aggregate/native IgG) ([2]; Ammonium Sulfate, 10 mM): 2.8 fold | Fluorescence enhancement (aggregate/native IgG) ([2]; Ammonium Sulfate, 100 mM): 2.6 fold | Fluorescence enhancement (aggregate/native IgG) ([2]; Ammonium Sulfate, 300 mM): 1.4 fold | Fluorescence enhancement (aggregate/native IgG) ([2]; Arginine, 200 mM): 1.4 fold | Fluorescence enhancement (aggregate/native IgG) ([2]; Arginine, 500 mM): 2.0 fold | Fluorescence enhancement (aggregate/native IgG) ([2]; Ascoric Acid, 1 mM): 1.5 fold | Fluorescence enhancement (aggregate/native IgG), Average [2]: 2.9 fold | Fluorescence enhancement (aggregate/native IgG) ([2]; Calcium Chloride, 10 mM): 3.1 fold | Fluorescence enhancement (aggregate/native IgG) ([2]; Calcium Chloride, 50 mM): 1.5 fold | Fluorescence enhancement (aggregate/native IgG) ([2]; Calcium Chloride, 200 mM): 1.7 fold | Fluorescence enhancement (aggregate/native IgG) ([2]; DTT, 1 mM): 1.6 fold | Fluorescence enhancement (aggregate/native IgG) ([2]; Glycine, 0.5%): 3.1 fold | Fluorescence enhancement (aggregate/native IgG) ([2]; Glycine, 2%): 3.2 fold | Fluorescence enhancement (aggregate/native IgG) ([2]; Lactose, 100 mM): 1.2 fold | Fluorescence enhancement (aggregate/native IgG) ([2]; Lactose, 300 mM): 1.4 fold | Fluorescence enhancement (aggregate/native IgG) ([2]; Mannitol, 100 mM): 3.1 fold | Fluorescence enhancement (aggregate/native IgG) ([2]; Mannitol, 300 mM): 3.7 fold | Fluorescence enhancement (aggregate/native IgG) ([2]; Mannitol, 600 mM): 1.8 fold | Fluorescence enhancement (aggregate/native IgG) ([2]; Sodium Chloride, 10 mM): 1.6 fold | Fluorescence enhancement (aggregate/native IgG) ([2]; Sodium Chloride, 100 mM): 1.3 fold | Fluorescence enhancement (aggregate/native IgG) ([2]; Sodium Chloride, 1000 mM): 2.7 fold | Fluorescence enhancement (aggregate/native IgG) ([2]; Sorbitol, 100 mM): 3.0 fold | Fluorescence enhancement (aggregate/native IgG) ([2]; Sorbitol, 300 mM): 1.9 fold | Fluorescence enhancement (aggregate/native IgG) ([2]; Sorbitol, 600 mM): 3.6 fold | Fluorescence enhancement (aggregate/native IgG) ([2]; Trehalose, 100 mM): 2.2 fold | Fluorescence enhancement (aggregate/native IgG) ([2]; Trehalose, 300 mM): 0.2 fold | Fluorescence enhancement (aggregate/native IgG) ([2]; Trehalose, 600 mM): 4.8 fold | Fluorescence enhancement (aggregate/native IgG) ([2]; Tween 20, 0.01%): 4.6 fold | Fluorescence enhancement (aggregate/native IgG) ([2]; Tween 20, 0.2%): 2.6 fold | Fluorescence enhancement (aggregate/native IgG) ([2]; X100, 0.01%): 5.3 fold | Fluorescence enhancement (aggregate/native IgG) ([2]; X100, 0.2%): 6.6 fold | Fluorescence enhancement (aggregate/native IgG) ([2]; X100, 1%): 3.4 fold

In the presence of aggregate: Emission wavelength [1]: 613 nm | In the presence of aggregate: Excitation wavelength [1]: 535 nm | Dye freely dissolved in buffer: Emission wavelength [3]: 620 nm | Dye freely dissolved in buffer: Excitation wavelength [3]: 500 nm
Molecule: CCN(CC)c1ccc(/C=C/c2cc[n+](CCCC[n+]3ccc(/C=C/c4ccc(N(CC)CC)cc4)cc3)cc2)cc1.[I-].[I-] [Yat 2134]

In the presence of aggregate: Emission wavelength [1]: 623 nm | In the presence of aggregate: Excitation wavelength [1]: 550 nm
Molecule: CN(C)c1ccc(/C=C/c2cc[n+](Cc3ccccc3C[n+]3ccc(/C=C/c4ccc(N(C)C)cc4)cc3)cc2)cc1.[Br-].[Br-] [Dye S43]

In the presence of aggregate: Emission wavelength [1]: 617 nm | In the presence of aggregate: Excitation wavelength [1]: 534 nm | Dye freely dissolved in buffer: Emission wavelength [3]: 614 nm | Dye freely dissolved in buffer: Excitation wavelength [3]: 502 nm
Molecule: CCN(CC)c1ccc(/C=C/c2cc[n+](CCOCC[n+]3ccc(/C=C/c4ccc(N(CC)CC)cc4)cc3)cc2)cc1.[I-].[I-] [Yat 2149]

— patent publication US9932479B2, “Dyes and compositions, and processes for using same in analysis of protein aggregation and other applications” (Enzo Biochem, Inc., priority 2009, dated 2018)
